Experimental data: ChEMBL document CHEMBL5038620, “Discovery of a First-in-Class Inhibitor of the Histone Methyltransferase SETD2 Suitable for Preclinical Studies” (ACS Med Chem Lett, 2021)

Columns and labels:
[1] = Clearance in CD-1 mouse at 1 mg/kg, iv by LC-MS/MS analysis; type: ADME, organism-based; conditions: in vivo
[2] = Volume of distribution in CD-1 mouse at 1 mg/kg, iv by LC-MS/MS analysis; type: ADME, organism-based; conditions: in vivo
[3] = Terminal half life in CD-1 mouse at 1 mg/kg, iv by LC-MS/MS analysis; type: ADME, organism-based; conditions: in vivo, read-out: beta t1/2 (converted)
[4] = Stability in mouse hepatocytes assessed as intrinsic clearance measured upto 60 minutes by LC/MS/MS analysis; type: ADME, cell-based, Hepatocyte; conditions: read-out: CLH
[5] = Stability in human hepatocytes assessed as intrinsic clearance measured upto 120 minutes by LC/MS/MS analysis; type: ADME, cell-based, Hepatocyte; conditions: time >=60 min, read-out: CLH
[6] = Apparent permeability across apical to basal membrane in human Caco-2 cells measured after 2 hrs by LC-MS/MS analysis; type: ADME, cell-based

For `CC(=O)N(C)C1CCN(c2cc(F)cc(NC(=O)c3cc4c(F)ccc(C)c4[nH]3)c2)C1` (centres undefined), the clearance [1] was 24.2 mL/min/kg, the Vd [2] was 1.04 L/kg and the half-life [3] was 42 min.
`CC.Cc1ccc(F)c2cc(C(=O)N[C@@H]3CCC[C@H](N4CC[C@@H](N(C)S(C)(=O)=O)C4)C3)[nH]c12` gave a CLint scaled [4] of 235 mL/min/kg and a CLint scaled [5] of 21.1 mL/min/kg.
Compound `Cc1ccc(F)c2cc(C(=O)N[C@@H]3CCC[C@H](N4CC[C@H](N(C)S(C)(=O)=O)C4)C3)[nH]c12` has a Papp A→B at 2 h [6] of 3.2 ×10⁻⁶ cm/s, a clearance [1] of 24.2 mL/min/kg and a Vd [2] of 1.04 L/kg. It also gave a half-life [3] of 42 min.
